We go through one molecule from ChEMBL document CHEMBL3779887, “Robenidine Analogues as Gram-Positive Antibacterial Agents” (J Med Chem, 2016).

As usually defined, the MIC90 is an inhibitory concentration at the 90% level, which refers to growth in some studies and to a panel of isolates in others. In general, MBC refers to the lowest tested concentration that kills the bacteria rather than only halting them. A low value points to more potent killing. The term solubility denotes how much of the substance goes into solution per volume. A higher solubility goes with much dissolved substance. As usually defined, the logD is lipophilicity at a set pH, counting ionised and neutral species. Usually MIC stands for the lowest concentration that inhibits growth of the organism. Read a high MIC as weaker potency. A word on the GI50: it is the concentration giving 50% growth inhibition.

For series [1], the system named is Staphylococcus aureus. The series is described as follows: Bactericidal activity against Methicillin-sensitive Staphylococcus aureus ATCC 29213 assessed as log reduction in bacterial cell number at MIC after 8 hrs by time kill curve analysis.
The nature of series [2]: Toxicity in sheep erythrocytes assessed as hemolysis after 30 mins. The format is cell-based, Ovis aries. The conditions noted are these: erythrocyte, 0.5 h.
The test system of series [3] is Staphylococcus aureus. The series can be described thus: Antibacterial activity against methicillin-sensitive Staphylococcus aureus ATCC 6538 after 20 to 24 hrs in presence of 50% heat inactivated bovine serum. Type of series: functional.
For series [4], the system named is Staphylococcus aureus. The series can be described thus: Bactericidal activity against […] Staphylococcus aureus clinical isolate USA300 assessed as log reduction in bacterial cell number at 8 times MIC after 8 hrs by time-kill curve analysis. Type of series: functional.
Series [5] concerns Staphylococcus aureus. The series is described as follows: Antibacterial activity against methicillin-sensitive Staphylococcus aureus ATCC 29213 after 20 to 24 hrs. The format is functional.
Series [6] relates to Staphylococcus aureus. The series is described as follows: Bactericidal activity against methicillin-sensitive Staphylococcus aureus ATCC 25923 after 24 and 48 hrs. Type of series: functional.
Series [7] can be described thus: Solubility of the compound at pH 6.5. The format is physicochemical. The conditions noted are these: buffer.
Series [8] is described as follows: Lipophilicity, logD of the compound at pH 7.4. The format is physicochemical. As to conditions: buffer.
The subject of the next series is Pseudomonas aeruginosa. The series can be described thus: Antibacterial activity against Pseudomonas aeruginosa ATCC 27853 after 20 to 24 hrs. The format is functional.
Series [9] deals with Staphylococcus aureus. The series can be described thus: Antibacterial activity against methicillin-sensitive Staphylococcus aureus ATCC 49775 after 20 to 24 hrs. The format is functional.
The subject of series [10] is Staphylococcus aureus. The series is described as follows: Antibacterial activity against methicillin-sensitive Staphylococcus aureus ATCC 6538 after 20 to 24 hrs. The format is functional.
Series [11] can be described thus: Metabolic stability in human liver microsomes assessed as compound loss after 60 mins. The conditions noted are these: read-out: Drug degradation. The format is ADME. (In general: Liver microsomes are a subcellular fraction often used to study metabolism.)
For series [12], the system named is Staphylococcus aureus. The series can be described thus: Bactericidal activity against Methicillin-sensitive Staphylococcus aureus ATCC 29213 assessed as log reduction in bacterial cell number at 2 times MIC after 24 hrs by time kill curve analysis. Type of series: functional, organism-based.
For series [13], the system named is Staphylococcus aureus. The series is described as follows: Antibacterial activity against methicillin-sensitive Staphylococcus aureus ATCC 29213 after 20 to 24 hrs in presence of 50% heat inactivated bovine serum. The format is functional.
A short description of series [14]: Cytotoxicity against human HEL299 cells after 24 hrs by WST-1 based colorimetric assay. The format is cell-based, HEL 299.
Series [15] concerns Staphylococcus aureus. The series is described as follows: Bactericidal activity against methicillin-sensitive Staphylococcus aureus ATCC 29213 assessed as log reduction in bacterial cell number at 2 times MIC after 8 hrs by time-kill curve analysis. Type of series: functional.
The subject of series [16] is Staphylococcus aureus. The series is described as follows: Ratio of MBC for methicillin-sensitive Staphylococcus aureus ATCC 29213 to MIC90 for methicillin-sensitive Staphylococcus aureus ATCC 29213. The format is functional.
Series [17] deals with Staphylococcus aureus. The series can be described thus: Antibacterial activity against methicillin-sensitive Staphylococcus aureus ATCC 49775 after 20 to 24 hrs in presence of 50% heat inactivated bovine serum. Type of series: functional.

Molecules are shown by their SMILES. Values after ≈ are worked out from the molar mass of the structure shown. Active and inactive are the calls of the source. The rule behind the calls is not given here.

For `N=C(N/N=C/c1ccc(Cl)cc1)N/N=C/c1ccc(Cl)cc1` [ROBENIDINE], the outcome in the series with Staphylococcus aureus [1] and in the series with Staphylococcus aureus [12] was inactive. Besides, the Activity entry in series [2] is recorded as “>= 173 uM”; in the series with Staphylococcus aureus [4], “>=4 log10CFU/ml”; in the series on Staphylococcus aureus [15] it was “>=4 log10CFU/ml”. Also, the MIC90 in the series on Staphylococcus aureus [3] is more than 250 µM; against Staphylococcus aureus [5], 5.4 µM (≈ 1.8 µg/mL); against Staphylococcus aureus [9], 5.4 µM (≈ 1.8 µg/mL); with Staphylococcus aureus [10], 5.4 µM (≈ 1.8 µg/mL); with Staphylococcus aureus [13], more than 250 µM; in the series on Staphylococcus aureus [17], more than 250 µM. For the same molecule, the MBC in the series on Staphylococcus aureus [6] came to 5.4 µM (≈ 1.8 µg/mL). The molecule also returned a solubility in [7] of less than 1.6 µg/mL. In [8], this molecule yielded a logD of 4.5. In the series on Pseudomonas aeruginosa, the minimum inhibitory concentration (MIC) was more than 400 µM. In [11], the metabolised at 1 h was less than 15%. Further, the GI50 at 24 h in [14] came out at 17.7 µM. Further, the Ratio in the series on Staphylococcus aureus [16] amounted to 1.
